In PubChem BioAssay (NCI):
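Results reflect a 48-hour exposure of cells in 96-well plates to compound at five concentrations. GI50 marks 50% less growth. TGI: total growth inhibition.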

Key:
Assay in all cases: growth of human tumour cells (NCI), 48 h
MDA-MB-231 breast = system: MDA-MB-231 breast
K-562 leukemia = system: K-562 leukemia
BT-549 breast = system: BT-549 breast
A549 NSCLC = system: A549 NSCLC
SR leukemia = system: SR leukemia
MALME-3M melanoma = system: MALME-3M melanoma
HCT-15 colon = system: HCT-15 colon
OVCAR-8 ovarian = system: OVCAR-8 ovarian
SK-MEL-5 melanoma = system: SK-MEL-5 melanoma
MCF7 breast = system: MCF7 breast
NCI/ADR-RES ovarian = system: NCI/ADR-RES ovarian
TK-10 renal = system: TK-10 renal
HT29 colon = system: HT29 colon
PC-3 prostate = system: PC-3 prostate
HOP-92 NSCLC = system: HOP-92 NSCLC
MOLT-4 leukemia = system: MOLT-4 leukemia
ACHN renal = system: ACHN renal
CCRF-CEM leukemia = system: CCRF-CEM leukemia
NCI-H522 lung = system: NCI-H522 lung
HL-60(TB) leukemia = system: HL-60(TB) leukemia
NCI-H460 lung = system: NCI-H460 lung
SN12C renal = system: SN12C renal
786-0 renal = system: 786-0 renal
CAKI-1 renal = system: CAKI-1 renal
IGROV1 ovarian = system: IGROV1 ovarian
UACC-62 melanoma = system: UACC-62 melanoma
OVCAR-3 ovarian = system: OVCAR-3 ovarian
RXF 393 renal = system: RXF 393 renal
SNB-19 CNS = system: SNB-19 CNS
HCC-2998 colon = system: HCC-2998 colon
SK-OV-3 ovarian = system: SK-OV-3 ovarian
OVCAR-5 ovarian = system: OVCAR-5 ovarian
SK-MEL-2 melanoma = system: SK-MEL-2 melanoma
COLO 205 colon = system: COLO 205 colon
NCI-H226 lung = system: NCI-H226 lung
MDA-MB-435 = system: MDA-MB-435
NCI-H23 lung = system: NCI-H23 lung
T-47D breast = system: T-47D breast
UACC-257 melanoma = system: UACC-257 melanoma
SK-MEL-28 melanoma = system: SK-MEL-28 melanoma
OVCAR-4 ovarian = system: OVCAR-4 ovarian
LOX IMVI melanoma = system: LOX IMVI melanoma
HCT-116 colon = system: HCT-116 colon
DU-145 prostate = system: DU-145 prostate
SF-539 CNS = system: SF-539 CNS
KM12 colon = system: KM12 colon
RPMI-8226 leukemia = system: RPMI-8226 leukemia
A498 renal = system: A498 renal
EKVX NSCLC = system: EKVX NSCLC
HOP-62 NSCLC = system: HOP-62 NSCLC
HS 578T breast = system: HS 578T breast
SNB-75 CNS = system: SNB-75 CNS
SF-295 CNS = system: SF-295 CNS
SW-620 colon = system: SW-620 colon
U251 CNS = system: U251 CNS
M14 melanoma = system: M14 melanoma
SF-268 CNS = system: SF-268 CNS
UO-31 renal = system: UO-31 renal

Structure (SMILES): O=C1C(Cl)=C(N2CCN(CCOCCO)CC2)C(=O)c2ncccc21
- TGI (MDA-MB-231 breast): > 10 µM
- TGI (K-562 leukemia): > 10 µM
- TGI (BT-549 breast): > 10 µM
- TGI (A549 NSCLC): > 10 µM
- TGI (SR leukemia): > 10 µM
- TGI (MALME-3M melanoma): > 10 µM
- TGI (HCT-15 colon): > 10 µM
- TGI (OVCAR-8 ovarian): > 10 µM
- TGI (SK-MEL-5 melanoma): > 10 µM
- TGI (MCF7 breast): > 10 µM
- TGI (NCI/ADR-RES ovarian): > 10 µM
- TGI (TK-10 renal): > 10 µM
- TGI (HT29 colon): > 10 µM
- TGI (PC-3 prostate): > 10 µM
- TGI (HOP-92 NSCLC): 3.29 µM
- TGI (MOLT-4 leukemia): > 10 µM
- TGI (ACHN renal): > 10 µM
- TGI (CCRF-CEM leukemia): > 10 µM
- TGI (NCI-H522 lung): 6.33 µM
- TGI (HL-60(TB) leukemia): > 10 µM
- TGI (NCI-H460 lung): > 10 µM
- TGI (SN12C renal): > 10 µM
- TGI (786-0 renal): > 10 µM
- TGI (CAKI-1 renal): > 10 µM
- TGI (IGROV1 ovarian): > 10 µM
- TGI (UACC-62 melanoma): > 10 µM
- TGI (OVCAR-3 ovarian): > 10 µM
- TGI (RXF 393 renal): 9.68 µM
- TGI (SNB-19 CNS): > 10 µM
- TGI (HCC-2998 colon): > 10 µM
- TGI (SK-OV-3 ovarian): > 10 µM
- TGI (OVCAR-5 ovarian): > 10 µM
- TGI (SK-MEL-2 melanoma): > 10 µM
- TGI (COLO 205 colon): > 10 µM
- TGI (NCI-H226 lung): > 10 µM
- TGI (MDA-MB-435): 7.05 µM
- TGI (NCI-H23 lung): > 10 µM
- TGI (T-47D breast): 5.51 µM
- TGI (UACC-257 melanoma): > 10 µM
- TGI (SK-MEL-28 melanoma): > 10 µM
- TGI (OVCAR-4 ovarian): > 10 µM
- TGI (LOX IMVI melanoma): > 10 µM
- TGI (HCT-116 colon): > 10 µM
- TGI (DU-145 prostate): > 10 µM
- TGI (SF-539 CNS): > 10 µM
- TGI (KM12 colon): > 10 µM
- TGI (RPMI-8226 leukemia): > 10 µM
- TGI (A498 renal): > 10 µM
- TGI (EKVX NSCLC): > 10 µM
- TGI (HOP-62 NSCLC): > 10 µM
- TGI (HS 578T breast): > 10 µM
- TGI (SNB-75 CNS): > 10 µM
- TGI (SF-295 CNS): > 10 µM
- TGI (SW-620 colon): > 10 µM
- TGI (U251 CNS): > 10 µM
- TGI (M14 melanoma): > 10 µM
- TGI (SF-268 CNS): > 10 µM

Structure (SMILES): C#CCn1cnc2cnc(Nc3cccc(NC(=O)CCl)c3)nc21
- GI50 (MDA-MB-231 breast): 20.8 µM
- TGI (MDA-MB-231 breast): > 62.5 µM
- GI50 (K-562 leukemia): 23.7 µM
- TGI (K-562 leukemia): > 62.5 µM
- GI50 (BT-549 breast): 13.3 µM
- TGI (BT-549 breast): > 62.5 µM
- GI50 (A549 NSCLC): 20 µM
- TGI (A549 NSCLC): > 62.5 µM
- GI50 (SR leukemia): 56.8 µM
- TGI (SR leukemia): > 62.5 µM
- GI50 (MALME-3M melanoma): 23.2 µM
- TGI (MALME-3M melanoma): > 62.5 µM
- GI50 (HCT-15 colon): 29.3 µM
- TGI (HCT-15 colon): > 62.5 µM
- GI50 (OVCAR-8 ovarian): 26.3 µM
- TGI (OVCAR-8 ovarian): > 62.5 µM
- GI50 (SK-MEL-5 melanoma): 10.3 µM
- TGI (SK-MEL-5 melanoma): 19.5 µM
- GI50 (UO-31 renal): 10.9 µM
- TGI (UO-31 renal): 55.3 µM
- GI50 (MCF7 breast): 15.3 µM
- TGI (MCF7 breast): > 62.5 µM
- GI50 (NCI/ADR-RES ovarian): 26.4 µM
- TGI (NCI/ADR-RES ovarian): > 62.5 µM
- GI50 (TK-10 renal): 22.9 µM
- TGI (TK-10 renal): > 62.5 µM
- GI50 (HT29 colon): 17.3 µM
- TGI (HT29 colon): > 62.5 µM
- GI50 (PC-3 prostate): 27.7 µM
- TGI (PC-3 prostate): > 62.5 µM
- GI50 (HOP-92 NSCLC): > 62.5 µM
- TGI (HOP-92 NSCLC): > 62.5 µM
- GI50 (MOLT-4 leukemia): 21.5 µM
- TGI (MOLT-4 leukemia): > 62.5 µM
- GI50 (ACHN renal): 10.9 µM
- TGI (ACHN renal): 23.3 µM
- GI50 (CCRF-CEM leukemia): 15.3 µM
- TGI (CCRF-CEM leukemia): > 62.5 µM
- GI50 (NCI-H522 lung): 10.3 µM
- TGI (NCI-H522 lung): 22.4 µM
- GI50 (HL-60(TB) leukemia): 15.7 µM
- TGI (HL-60(TB) leukemia): 41.3 µM
- GI50 (NCI-H460 lung): 22.7 µM
- TGI (NCI-H460 lung): > 62.5 µM
- GI50 (SN12C renal): 19.4 µM
- TGI (SN12C renal): > 62.5 µM
- GI50 (786-0 renal): 23.3 µM
- TGI (786-0 renal): > 62.5 µM
- GI50 (CAKI-1 renal): 22.9 µM
- TGI (CAKI-1 renal): > 62.5 µM
- GI50 (IGROV1 ovarian): 6.99 µM
- TGI (IGROV1 ovarian): 22.3 µM
- GI50 (UACC-62 melanoma): 22.6 µM
- TGI (UACC-62 melanoma): > 62.5 µM
- GI50 (OVCAR-3 ovarian): 15.2 µM
- TGI (OVCAR-3 ovarian): > 62.5 µM
- GI50 (RXF 393 renal): 10.1 µM
- TGI (RXF 393 renal): 25.4 µM
- GI50 (SNB-19 CNS): 36.5 µM
- TGI (SNB-19 CNS): > 62.5 µM
- GI50 (HCC-2998 colon): 46.8 µM
- TGI (HCC-2998 colon): > 62.5 µM
- GI50 (SK-OV-3 ovarian): 23.6 µM
- TGI (SK-OV-3 ovarian): > 62.5 µM
- GI50 (OVCAR-5 ovarian): 29.8 µM
- TGI (OVCAR-5 ovarian): > 62.5 µM
- GI50 (SK-MEL-2 melanoma): 43 µM
- TGI (SK-MEL-2 melanoma): > 62.5 µM
- GI50 (COLO 205 colon): 15.2 µM
- TGI (COLO 205 colon): 45 µM
- GI50 (NCI-H226 lung): 49.9 µM
- TGI (NCI-H226 lung): > 62.5 µM
- GI50 (MDA-MB-435): 28.5 µM
- TGI (MDA-MB-435): > 62.5 µM
- GI50 (NCI-H23 lung): 38.8 µM
- TGI (NCI-H23 lung): > 62.5 µM
- GI50 (T-47D breast): > 62.5 µM
- TGI (T-47D breast): > 62.5 µM
- GI50 (UACC-257 melanoma): 51 µM
- TGI (UACC-257 melanoma): > 62.5 µM
- GI50 (SK-MEL-28 melanoma): 25.3 µM
- TGI (SK-MEL-28 melanoma): > 62.5 µM
- GI50 (LOX IMVI melanoma): 16.3 µM
- TGI (LOX IMVI melanoma): > 62.5 µM
- GI50 (HCT-116 colon): 21.3 µM
- TGI (HCT-116 colon): > 62.5 µM
- GI50 (DU-145 prostate): 29.8 µM
- TGI (DU-145 prostate): > 62.5 µM
- GI50 (SF-539 CNS): 16.9 µM
- TGI (SF-539 CNS): > 62.5 µM
- GI50 (KM12 colon): 21.1 µM
- TGI (KM12 colon): > 62.5 µM
- GI50 (RPMI-8226 leukemia): 19.2 µM
- TGI (RPMI-8226 leukemia): > 62.5 µM
- GI50 (A498 renal): 21 µM
- TGI (A498 renal): > 62.5 µM
- GI50 (EKVX NSCLC): > 62.5 µM
- TGI (EKVX NSCLC): > 62.5 µM
- GI50 (HOP-62 NSCLC): 54.7 µM
- TGI (HOP-62 NSCLC): > 62.5 µM
- GI50 (HS 578T breast): 17.3 µM
- TGI (HS 578T breast): > 62.5 µM
- GI50 (SNB-75 CNS): 8.18 µM
- TGI (SNB-75 CNS): > 62.5 µM
- GI50 (SF-295 CNS): 47.1 µM
- TGI (SF-295 CNS): > 62.5 µM
- GI50 (SW-620 colon): 19.1 µM
- TGI (SW-620 colon): > 62.5 µM
- GI50 (U251 CNS): 19.6 µM
- TGI (U251 CNS): > 62.5 µM
- GI50 (M14 melanoma): 22.5 µM
- TGI (M14 melanoma): > 62.5 µM
- GI50 (SF-268 CNS): 25.8 µM
- TGI (SF-268 CNS): > 62.5 µM
